≈ marks a conversion by molar mass, not a printed value.
Assays:
Cytochrome P450 3A4 = Cytochrome P450 3A4 (Homo sapiens, UniProt P08684); assay: Inhibition of human CYP3A4 incubated for 60 mins by red fluorescent-probe-based microsomal assay; type: ADME
in vitro [1] = conditions: mouse, liver microsomes
Enterococcus faecium [2] = assay: Antibacterial activity against Vancomycin-resistant Enterococcus faecium assessed as inhibition of visible growth incubated for 20 to 24 hrs by microbroth serial dilution assay; type: functional; conditions: time 20-24 hrs, read-out: MIC100
Staphylococcus aureus [3] = assay: Antibacterial activity against multi drug-resistant Staphylococcus aureus USA300 FPR3757 assessed as reduction in bacterial growth at 1 times of MIC concentration measured at first 12 hrs by time-kill assay; type: functional
Staphylococcus aureus [4] = assay: Induction of resistant development in linezolid 5 passages resistance developed Staphylococcus aureus USA300 FPR3757 assessed as fold increase in MIC at sub-MIC concentration measured after 22 passages with conjugate by serial passage assay; type: functional
Staphylococcus aureus [5] = assay: Antibacterial activity against multi drug-resistant Staphylococcus aureus USA300 FPR3757 assessed as reduction in bacterial growth at 4 times of MIC concentration measured after 6 hrs by time-kill assay; type: functional
in vitro [6] = conditions: human, liver microsomes
in vitro [7] = conditions: mouse, liver microsomes; remark: listed apart in the source
Staphylococcus aureus [8] = assay: Antibacterial activity against multi drug-resistant Staphylococcus aureus USA300 FPR3757 assessed as inhibition of visible growth incubated for 20 to 24 hrs by microbroth serial dilution assay; type: functional; conditions: time 20-24 hrs, read-out: MIC100
in vitro [9] = conditions: pig, liver microsomes
Staphylococcus aureus [10] = assay: Antibacterial activity against multi drug-resistant Staphylococcus aureus USA300 FPR3757 assessed as reduction in bacterial growth of original inoculum at 4 times of MIC concentration measured after 24 hrs by time-kill assay; type: functional
MDCK-MDR1 = assay: Cytotoxicity against MDCKII-MDR1 cells assessed as cell viability at 100 uM measured by MTT assay; type: toxicity, cell-based, Canis lupus familiaris; conditions: dog, mdck-mdr1, 100 µM
Enterococcus faecalis = assay: Antibacterial activity against Enterococcus faecalis assessed as inhibition of visible growth incubated for 20 to 24 hrs by microbroth serial dilution assay; type: functional; conditions: time 20-24 hrs, read-out: MIC100
Staphylococcus aureus [11] = assay: Antibacterial activity against multi drug-resistant Staphylococcus aureus USA300 FPR3757 assessed as reduction in bacterial growth of original inoculum at 4 times of MIC concentration measured after 24 hrs by time-kill assay relative to control; type: functional
Streptococcus pneumoniae = assay: Antibacterial activity against Streptococcus pneumoniae assessed as inhibition of visible growth incubated for 20 to 24 hrs by microbroth serial dilution assay; type: functional; conditions: time 20-24 hrs, read-out: MIC100
Staphylococcus aureus [12] = assay: Induction of resistant development in linezolid 5 passages resistance developed Staphylococcus aureus USA300 FPR3757 assessed as fold increase in MIC at sub-MIC concentration measured after 5 passages with conjugate by serial passage assay; type: functional
[13] = Efflux ratio of apparent permeability from basolateral to apical side over apical to basolateral side in human Caco-2 cells at 100 uM and measured after 120 mins by LC-MS analysis; type: ADME, cell-based
Enterococcus faecium [14] = assay: Antibacterial activity against Linezolid/Ampicillin/ciprofloxacin/Vancomycin-resistant Enterococcus faecium assessed as inhibition of visible growth incubated for 20 to 24 hrs by microbroth serial dilution assay; type: functional; conditions: time 20-24 hrs, read-out: MIC100
Staphylococcus aureus [15] = assay: Induction of resistant development in lefamulin 5 passages resistance developed Staphylococcus aureus USA300 FPR3757 assessed as fold increase in MIC at sub-MIC concentration measured after 18 passages with conjugate by serial passage assay; type: functional
hERG (KCNH2) = hERG (KCNH2) (Homo sapiens, UniProt Q12809); assay: Inhibition of hERG expressed in HEK293 cells assessed as tail current at 60 uM measured after 8 mins by automated whole-cell Qpatch Clamp assay relative to control; conditions: HEK293 cells that express hERG
Sequence of hERG (KCNH2) (Q12809 whole entry): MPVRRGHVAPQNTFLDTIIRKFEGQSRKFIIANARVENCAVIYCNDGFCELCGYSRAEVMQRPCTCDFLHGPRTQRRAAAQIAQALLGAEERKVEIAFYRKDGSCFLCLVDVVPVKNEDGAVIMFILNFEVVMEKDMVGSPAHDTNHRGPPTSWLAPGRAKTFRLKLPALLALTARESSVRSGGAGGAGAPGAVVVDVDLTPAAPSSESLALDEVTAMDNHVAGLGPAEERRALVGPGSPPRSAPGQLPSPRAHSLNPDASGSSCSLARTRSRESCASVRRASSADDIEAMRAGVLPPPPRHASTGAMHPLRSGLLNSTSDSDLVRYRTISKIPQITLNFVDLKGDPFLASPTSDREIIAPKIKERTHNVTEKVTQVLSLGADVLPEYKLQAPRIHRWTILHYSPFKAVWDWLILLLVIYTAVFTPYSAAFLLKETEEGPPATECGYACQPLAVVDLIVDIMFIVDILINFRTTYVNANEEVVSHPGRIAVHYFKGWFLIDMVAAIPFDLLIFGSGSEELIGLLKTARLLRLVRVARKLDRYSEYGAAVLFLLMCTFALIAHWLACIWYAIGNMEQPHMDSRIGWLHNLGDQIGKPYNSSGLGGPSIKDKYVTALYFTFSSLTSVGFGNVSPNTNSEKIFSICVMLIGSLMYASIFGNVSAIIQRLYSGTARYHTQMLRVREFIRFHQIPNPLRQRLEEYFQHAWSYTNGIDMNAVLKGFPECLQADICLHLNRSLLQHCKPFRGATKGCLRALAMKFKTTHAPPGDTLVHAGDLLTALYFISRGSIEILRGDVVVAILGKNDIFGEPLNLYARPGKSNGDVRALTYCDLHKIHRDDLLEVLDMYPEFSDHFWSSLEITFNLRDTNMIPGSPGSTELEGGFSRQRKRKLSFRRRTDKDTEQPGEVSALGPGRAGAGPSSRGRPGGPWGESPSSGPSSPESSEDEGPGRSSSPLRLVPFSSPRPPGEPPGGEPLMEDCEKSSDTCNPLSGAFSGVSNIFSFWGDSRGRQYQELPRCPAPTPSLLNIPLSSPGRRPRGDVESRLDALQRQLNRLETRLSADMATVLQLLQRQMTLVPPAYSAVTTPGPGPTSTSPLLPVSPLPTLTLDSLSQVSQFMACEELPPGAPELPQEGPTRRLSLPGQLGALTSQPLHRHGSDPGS

[16] = Apparent permeability from basolateral to apical side in human Caco-2 cells at 280 uM measured upto 120 mins by LC-MS analysis; type: ADME, cell-based
Staphylococcus aureus [17] = assay: Induction of resistant development in linezolid 5 passages resistance developed Staphylococcus aureus USA300 FPR3757 assessed as fold increase in MIC at sub-MIC concentration measured after 25 passages with conjugate by serial passage assay; type: functional
[18] = target: Voltage-gated inwardly rectifying potassium channel KCNH2 (Homo sapiens, UniProt Q12809); assay: Inhibition of hERG expressed in HEK293 cells assessed as tail current measured after 8 mins by automated whole-cell Qpatch Clamp assay
Sequence of Voltage-gated inwardly rectifying potassium channel KCNH2 (Q12809 whole entry): as above

in vitro [19] = conditions: pig, liver microsomes; remark: listed apart in the source
[20] = Apparent permeability from basolateral to apical side in human Caco-2 cells at 100 uM measured upto 120 mins by LC-MS analysis; type: ADME, cell-based
[21] = Apparent permeability from apical to basolateral side in human Caco-2 cells at 100 uM measured upto 120 mins by LC-MS analysis; type: ADME, cell-based
[22] = Solubility of the compound in Dulbecco's PBS at 20 degree C measured after 24 hrs
[23] = Efflux ratio of apparent permeability from basolateral to apical side over apical to basolateral side in human Caco-2 cells at 280 uM and measured after 120 mins by LC-MS analysis; type: ADME, cell-based
[24] = Inhibition of P-gp efflux in MDCKII-MDR1 cells using calcein-AM as substrate assessed as intracellular calcein fluorescence preincubated for 15 mins followed by substrate addition and measured by fluorescence based assay; type: cell-based; conditions: Canis lupus familiaris
[25] = Efflux ratio of apparent permeability from basolateral to apical side over apical to basolateral side in human Caco-2 cells at 10 uM; type: ADME, cell-based
[26] = Apparent permeability from apical to basolateral side in human Caco-2 cells at 280 uM measured upto 120 mins by LC-MS analysis; type: ADME, cell-based
[27] = Plasma protein binding in human at 5 to 15 uM incubated for 5 hrs by LC-MS analysis; type: ADME, cell-free; conditions: dose 5-15 µM, read-out: PPB (converted)
in vitro [28] = conditions: human, liver microsomes; remark: listed apart in the source
[29] = AUC (0 to infinity) in pig plasma at 3 mg/kg, iv measured upto 240 mins by LC-MS/MS analysis; type: ADME, organism-based, Sus scrofa; conditions: in vivo, 4 h
[30] = Plasma concentration in pig at 10 mg/kg, po measured upto 240 mins by LC-MS/MS analysis; type: ADME, organism-based, Sus scrofa
[31] = Half life in NMRI female mouse at 20 mg/kg, sc by HPLC analysis; type: ADME, organism-based; conditions: in vivo
[32] = Bioavailability in NMRI female mouse at 30 mg/kg, po by HPLC analysis; type: ADME, organism-based; conditions: in vivo
[33] = AUC (0 to infinity) in pig plasma at 10 mg/kg, po measured upto 240 mins by LC-MS/MS analysis; type: ADME, organism-based, Sus scrofa; conditions: in vivo, 4 h
[34] = AUC (0 to infinity) in NMRI female mouse at 30 mg/kg, iv by HPLC analysis; type: ADME, organism-based; conditions: in vivo
[35] = Elimination rate constant in pig plasma at 10 mg/kg, po measured upto 240 mins by LC-MS/MS analysis; type: ADME, organism-based, Sus scrofa
[36] = Cmax in pig urine at 3 mg/kg, iv measured upto 240 mins by LC-MS/MS analysis; type: ADME, organism-based, Sus scrofa

Sequence of Cytochrome P450 3A4 (P08684 whole entry): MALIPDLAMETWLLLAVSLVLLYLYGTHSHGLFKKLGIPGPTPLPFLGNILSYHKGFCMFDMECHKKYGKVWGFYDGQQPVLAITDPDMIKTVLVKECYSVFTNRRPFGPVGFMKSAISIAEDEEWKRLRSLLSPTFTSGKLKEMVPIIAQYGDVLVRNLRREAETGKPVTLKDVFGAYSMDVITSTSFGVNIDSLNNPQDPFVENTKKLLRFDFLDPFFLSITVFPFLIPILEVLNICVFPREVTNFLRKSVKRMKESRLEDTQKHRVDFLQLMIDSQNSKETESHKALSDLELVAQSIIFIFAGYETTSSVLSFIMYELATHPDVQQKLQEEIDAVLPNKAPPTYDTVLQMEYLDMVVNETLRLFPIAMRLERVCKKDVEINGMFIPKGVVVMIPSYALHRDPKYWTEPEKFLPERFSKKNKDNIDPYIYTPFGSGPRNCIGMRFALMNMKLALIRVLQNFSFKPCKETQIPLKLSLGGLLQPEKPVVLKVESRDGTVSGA

SMILES	IC50 (Cytochrome P450 3A4)	half-life at 0.5 h, 1 µM (in vitro [1])	MIC (Enterococcus faecium [2])	Activity (Staphylococcus aureus [3])	Activity (Staphylococcus aureus [5])	half-life at 0.5 h, 1 µM (in vitro [6])	CLint scaled at 0.5 h, 1 µM (in vitro [7])	MIC (Staphylococcus aureus [8])	half-life at 0.5 h, 1 µM (in vitro [9])	Activity (Staphylococcus aureus [10])	Activity (MDCK-MDR1)	MIC (Enterococcus faecalis)	inhibition (INH) (Staphylococcus aureus [11])	MIC (Streptococcus pneumoniae)	efflux ratio at 2 h, 100 µM [13]	MIC (Enterococcus faecium [14])	inhibition at 8 min, 60 µM (hERG (KCNH2))	Papp B→A at 2 h, 280 µM [16]	IC50 [18]	CLint scaled at 0.5 h, 1 µM (in vitro [19])	other results
C=C[C@]1(C)C[C@@H](OC(=O)CS[C@@H]2CC[C@@H](N)C[C@H]2O)[C@]2(C)[C@H](C)CC[C@]3(CCC(=O)[C@H]32)[C@@H](C)[C@@H]1O [LEFAMULIN]	0.75 µM	11.5 min	0.12 µg/mL (≈ 0.236 µM)	2 log10CFU/ml	2.5 log10CFU/ml	4.3 min	478 mL/min/kg	0.12 µg/mL (≈ 0.236 µM)	15.3 min	3 log10CFU/ml	Non-Toxic	0.06 µg/mL (≈ 0.118 µM)	99.9%	0.25 µg/mL (≈ 0.492 µM)	40.8	0.12 µg/mL (≈ 0.236 µM)	32.8%	12.5 ×10⁻⁶ cm/s	126 µM	359 mL/min/kg	fold change (FC) (Staphylococcus aureus [4]): 32; fold change (FC) (Staphylococcus aureus [12]): 4; fold change (FC) (Staphylococcus aureus [15]): 32; fold change (FC) (Staphylococcus aureus [17]): 32; Papp B→A at 2 h, 100 µM [20]: 25.7 ×10⁻⁶ cm/s; Papp A→B at 2 h, 100 µM [21]: 0.63 ×10⁻⁶ cm/s; solubility at 24 h [22]: 1920 µM (≈ 973 µg/mL); efflux ratio at 2 h, 280 µM [23]: 3.9; IC50 [24]: 43 µM; efflux ratio at 10 µM [25]: 68; Papp A→B at 2 h, 280 µM [26]: 3.19 ×10⁻⁶ cm/s; fraction unbound at 5 h, up to 15 µM [27]: 0.34; CLint scaled at 0.5 h, 1 µM (in vitro [28]): 1460 mL/min/kg
C=C[C@]1(C)C[C@@H](OC(=O)Cn2cc(-c3ccc(Cn4cnc5c(N6CCNCC6)ncnc54)nc3)nn2)[C@]2(C)[C@H](C)CC[C@]3(CCC(=O)[C@H]32)[C@@H](C)[C@@H]1O	0.41 µM	5.9 min	0.03 µg/mL (≈ 0.0415 µM)	2 log10CFU/ml	~3 log10CFU/ml	3.7 min	929 mL/min/kg	0.12 µg/mL (≈ 0.166 µM)	1.3 min	3 log10CFU/ml	Non-Toxic	0.12 µg/mL (≈ 0.166 µM)	99.9%	0.03 µg/mL (≈ 0.0415 µM)	48	0.12 µg/mL (≈ 0.166 µM)	27.4%	5.34 ×10⁻⁶ cm/s	> 200 µM	4200 mL/min/kg	AUC [29]: 35.5 µg/mL/min; concentration at 4 h [30]: 49.7 ng/mL; half-life [31]: 124 min; bioavailability [32]: 0.3%; AUC [33]: 7.1 µg/mL/min; AUC [34]: 643 µg/mL/min; k el at 4 h [35]: 0.000518 s⁻¹; Papp B→A at 2 h, 100 µM [20]: 23 ×10⁻⁶ cm/s; Papp A→B at 2 h, 100 µM [21]: 0.48 ×10⁻⁶ cm/s; solubility at 24 h [22]: 114 µM (≈ 82.4 µg/mL); efflux ratio at 2 h, 280 µM [23]: 2.5; IC50 [24]: 47 µM; Cmax [36]: 18700 ng/mL; Papp A→B at 2 h, 280 µM [26]: 2.12 ×10⁻⁶ cm/s; fraction unbound at 5 h, up to 15 µM [27]: 0.27; CLint scaled at 0.5 h, 1 µM (in vitro [28]): 1710 mL/min/kg

From ChEMBL document CHEMBL5518206, “Hit-to-Lead Identification and Validation of a Triaromatic Pleuromutilin Antibiotic Candidate” (J Med Chem, 2024)
